# Measurements from patent US7534915B2, “Non-symmetrical gelling agent” (Applied Nanosystems B.V., priority 2003, dated 2009).
# Key:
# [1] = TEM particle size of a compound of interest included in gels of gelator 12; assay type: physicochemical; conditions: for Crystal size, reference without gelator: DMSO/H2O 100 μL/900 μL
# Protocol: Transmission Electron Microscopy Measurements
# A gel was prepared following one of the procedures described above. A small amount of the gel was carefully deposited on a carbon-coated copper grid, using a spatula. The excess solution was blotted with a filter paper, leaving a thin sample film. The samples were examined using a JEOL 1200EX (80-100 kV) and pictures were taken of representative parts. The samples were all prepared in duplo.
# To a solution containing 4 mg (6.0×10^−3 mmol) of gelator 12 (CHex(AmPhe-6AQ)(AmEtOEtOH)2) and 1.22 mg (6.0×10^−3 mmol) of pyrene in 100 μL of DMSO, 900 μL of distilled water were quickly added.
# To determine the stability in time of pyrene particles in a gel, samples were prepared as described in the previous paragraph and examined with TEM after 7 days, 18 days, 1 month and 2 months. As reference, samples containing only pyrene in DMSO/H2O (100 μL/900 μL) were also prepared. Moreover, to determine the effect of the gelator in solution, i.e., not in the gel, samples containing 4 mg (6.0×10^−3 mmol) of gelator 12 (CHex(AmPhe-6AQ)(AmEtOEtOH)2), 1.22 mg (6.0×10^−3 mmol) of pyrene, 100 μL of DMSO and 900 μL of 1N HCl were prepared. […] All samples were kept at room temperature, in the dark.
# To a solution containing 1.96 mg (2.9×10^−3 mmol) of gelator 12 (CHex(AmPhe-6AQ)(AmEtOEtOH)2) and 1.0 mg (2.9×10^−3 mmol) of danazol in 50 μL of DMSO, 950 μL of distilled water were quickly added. […] In a reference sample consisting only of danazol in 100 μL of DMSO and 900 μL of distilled water, rod-shaped danazol particles are 0.5-10 μm wide and 15-53 μm long. […]
# α-chymotrypsin = test: α-chymotrypsin-induced cleavage followed by fluorescence detection of released 6-AQ; assay type: biochemical; conditions: for Km / Vmax: from Lineweaver-Burke and Eadie-Hofstee plots, for 12 only points where V still increased; for Cleavage (6-AQ formation) by α-chymotrypsin: substrate 7.54 mM (12 as gel, 39 as solution), α-chymotrypsin 40 mM as printed
# Description: In order to investigate the enzymatic cleavage of a gelator-drug conjugate, we selected the enzyme α-chymotrypsin, which is capable of cleaving amide bonds at the C═O terminus of L-phenylalanine-based substrates like compound 12 (CHex(AmPhe-6AQ)(AmEtOEtOH)2), resulting here in the release of the fluorogenic “model drug” 6-aminoquinoline (6-AQ). This system allows easy monitoring of the cleavage kinetics owing to the fact that the excitation and emission maxima for the amide and amino form of this compound are adequately separated (amide form: λex=315 nm, λem=370 nm, amine form: λex=339 nm, λem=550 nm).
# Gelator 12 was dissolved in a small amount of DMSO (100 μL), whereas α-chymotrypsin was dissolved in a buffer solution (Tris-HCl, 0.1 M, pH 7.75, 900 μL). […] In order to determine the effect of gelation on the enzymatic cleavage, the water-soluble, non-gelating, model substrate 39 was synthesized with a structure similar to that of gelator 12.
# Fluorescence experiments were carried out in which the α-chymotrypsin-induced cleavage of compounds 12 and 39 was followed through the detection of 6-AQ.
# Legend to FIG. 2 (from bottom to top): Trace a: gel of gelator 12 (0.5 wt %=7.54 mM); trace b: gel of gelator 12 (0.5 wt %=7.54 mM)+α-chymotrypsin ([…]); trace c: gel of gelator 12 (0.5 wt %=7.54 mM)+compound 39 (7.54 mM)+α-chymotrypsin (40 μM); trace d: solution of compound 39 (7.54 mM)+α-chymotrypsin (40 mM)
# Performing the cleavage experiments for both 12 and 39 at different substrate concentrations and plotting the initial rates as a function of the substrate concentration (i.e., 12 or 39) results in the points plotted in FIG. 3. […] The initial rates for gelator 12, however, increase up to a certain point, after which they remain the same, even at much higher concentrations. From the corresponding Lineweaver-Burke and Eadie-Hofstee plots, values for Vmax and Km could be obtained for both compounds. […] From these points, the following values were calculated. […] Using these values for Vmax and Km, the theoretical curves could be plotted for both compounds. For compound 39, the experimentally determined points fitted very well on the curve. […] Below this concentration, a sample of 12 exists as a solution. So, even though the molecules in a gel are in constant equilibrium with those in solution and the overall gelator concentration may increase well above the CGC (thus bringing about gelation), the concentration of gelator in solution can never exceed the CGC. The fact that the initial rate for 12 no longer increases once the substrate (i.e., gelator) concentration exceeds the CGC, proves that only the gelator molecules in solution can be cleaved by the enzyme.
# [2] = Gel test (vial inversion); assay type: physicochemical
# Protocol: A weighed amount of solid was dissolved in 0.5 or 1 ml of the solvent in a closed 2.0 ml vial using a heating gun or a heating block and subsequently slowly cooled to room temperature by standing in the air. Gelation was determined by turning the vial upside down and gentle shaking. If no flow of the mass was observed, the mass was defined to be a gel. Alternatively, a weighed amount of solid was dissolved in 1 mL of solvent by the addition of acid or base. The subsequent addition of base or acid then gave gelation. Alternatively, a weighed amount of solid was dissolved in a small amount of solvent. The subsequent addition of a large amount of non-solvent then gave gelation. Alternatively, the solution of gelator/thickener was added to the non-solvent, resulting in gelation. Alternatively, a weighed amount of solid was mixed with 1 mL of solvent by sonication. After stopping the sonication, gelation occurred. Alternatively a weighed amount of solid was mixed with 1 mL of solvent by brief vortexing after which gelation occurred. Alternatively a weighed amount of solid was mixed with 1 mL of solvent after which gelation occurred.
# [3] = Cryo-TEM and small angle x-ray diffraction of hydrogel fibers; assay type: physicochemical
# Protocol: Cryo-transmission Electron Microscopy Measurements
# A gel was prepared following one of the procedures described above. A small amount of the gel was carefully deposited on a bare copper grid, using a spatula. The excess solution was blotted with a filter paper, leaving a thin sample film. The grid was subsequently plunged into liquid ethane for vitrification. The vitrified specimens were transferred to a Gatan model 626 cryostage and observed in a Philips CM 120 electron microscope operating at 120 kV. The images were recorded under low-dose conditions at about −170° C. The samples were all prepared in duplo.
# Presumably, the lack of (C3-)symmetry prevents the aggregation of the fibers into large bundles from taking place, and leads to the highly uniform and very low fiber diameter, the latter in turn leading to clear gel.
# The left-side image is a low magnification, the right-side image a high magnification (white bar at the upper left-hand quarter in the right-side image corresponds to 4.5 nm). […] The high uniformity of the fiber thicknesses can be clearly observed in the close-up image on the right.
smiles,measurement,setting,value
c1cc2ccc3cccc4ccc(c1)c2c34 [pyrene],"Crystal size, reference without gelator",[1]; after 2 months,2-12 μm
same,"Crystal size, reference without gelator","[1]; after 7 days, 18 days or 1 month",0.4-9 μm
same,Crystal size in gel,"[1]; gel of 12, 1:1, DMSO/H2O, after 1 month",~150 nm
same,Particle size in gel,"[1]; gel of 12, 1:1, DMSO/H2O, after 7 days, room temperature, dark",37-185 nm
same,Particle size in gel,"[1]; gel of 12, 1:1, DMSO/H2O, after 18 days",30-190 nm
same,"Crystal size, gelator in solution","[1]; with 12 1:1 in DMSO/1N HCl 100 μL/900 μL (not gelled), after 7 days",0.2-3 μm
same,"Size of larger crystals, gelator in solution","[1]; with 12 1:1 in DMSO/1N HCl (not gelled), after 1 month",6 μm
"O=C(O)CCCC(=O)N[C@@H](Cc1ccccc1)C(=O)Nc1ccc2ncccc2c1 [Compound 39, reference compound]",Km,α-chymotrypsin,4.9 mM
same,Vmax,α-chymotrypsin,22.3 µmol/min
same,Cleavage (6-AQ formation) by α-chymotrypsin,α-chymotrypsin,more readily cleaved
same,Solubility in water,[2],water-soluble
same,Gelation behaviour,[2]; water,non-gelating
C#C[C@]1(O)CC[C@H]2[C@@H]3CCC4=Cc5oncc5C[C@]4(C)[C@H]3CC[C@@]21C [danazol],"Length of rod-shaped particles, reference without gelator",[1]; DMSO 100 μL + water 900 μL,15-53 μm
same,"Width of rod-shaped particles, reference without gelator",[1]; DMSO 100 μL + water 900 μL,0.5-10 μm
same,Presence of rod-shaped particles,"[1]; freeze-dried gel of 12, 5:1",no rod-shaped particles were present
same,Length of rod-shaped particles in gel,"[1]; gel of 12, 1:1, some particles",9 μm
same,Width of rod-shaped particles in gel,"[1]; gel of 12, 1:1, some particles",0.7 μm
same,Presence of rod-shaped particles,"[1]; gel of 12, 2:1",no rod-shaped danazol particles are present
same,Size of some particles in gel,"[1]; gel of 12, 2:1",2 μm
same,Size of very few particles in gel,"[1]; gel of 12, 2:1",10 μm
same,Presence of rod-shaped particles,"[1]; gel of 12, 5:1",no rod-shaped particles are present
same,Size of some particles in gel,"[1]; gel of 12, 5:1",400 nm
same,Average particle size in gel,"[1]; gel of 12, gelator:danazol 1:1, DMSO/water 50 μL/950 μL",140-700 nm
same,Average particle size in gel,"[1]; gel of 12, gelator:danazol 2:1",28 nm
same,Average particle size in gel,"[1]; gel of 12, gelator:danazol 5:1",14 nm
"O=C(NCCOCCO)[C@@H]1C[C@H](C(=O)NCCOCCO)C[C@H](C(=O)N[C@@H](Cc2ccccc2)C(=O)Nc2ccc3ncccc3c2)C1 [Compound 12, CHex(AmPhe-6AQ)(AmEtOEtOH)2]",Km,α-chymotrypsin,1.8 mM
same,Vmax,α-chymotrypsin,4.1 µmol/min
same,Cleavage (6-AQ formation) in the absence of α-chymotrypsin,"α-chymotrypsin; gel 0.5 wt % = 7.54 mM, fluorescence at 550 nm",no cleavage
same,experimentally determined Vmax,α-chymotrypsin; plateau of initial rate above the CGC,1.8 µmol/min
same,Cleavage (6-AQ formation) by α-chymotrypsin,α-chymotrypsin,minor cleavage
same,Gel test,[2]; 0.3 mg/mL in H2O or PBS,clear gel
same,Gel test,[2]; 0.5 mg/mL in H2O/DMSO (19:1),clear gel
same,Gel test,[2]; 0.6 mg/mL in H2O/EtOH (19:1),clear gel
same,Gel formation,[2]; 4 mg with pyrene in DMSO 100 μL + 1N HCl 900 μL,does not gelate
same,Gel test,[2]; 25 mg/ml in EtOH,turbid gel
same,Gel formation,"[2]; DMSO 100 μL + α-chymotrypsin in Tris-HCl 0.1 M pH 7.75 900 μL, rapid addition","clear, homogeneous gel"
same,Critical gelator concentration (CGC),[2]; H2O:DMSO=9:1,1.5 mM
same,Gel fiber thickness,[3],about 4.5 nm
"CCCCCC(C)NC(=O)[C@H](Cc1ccccc1)NC(=O)[C@@H]1C[C@H](C(=O)O)C[C@H](C(=O)O)C1 (stereo partly shown) [Compound 21, CHex(AmPheAm2-Heptyl)(COOH)2]",Gel test,"[2]; H2O, concentration not given",gel
same,Gel test,[2]; toluene,gel
"O=C(NCCOCCO)[C@@H]1C[C@H](C(=O)NCCOCCO)C[C@H](C(=O)N[C@@H](Cc2ccccc2)C(=O)Nc2ccc([N+](=O)[O-])cc2)C1 [Compound 14, CHex(AmPheAmPhNO2)(AmEtOEtOH)2]",Gel test,"[2]; H2O, concentration not given","yellow, weak gel"
same,Stability upon heating in water,"[2]; heating in water, yellow color (p-NA) observed",hydrolysis of the PheAmPhNO2 amide takes place
"CSCC[C@H](NC(=O)[C@@H]1C[C@H](C(=O)NCCOCCO)C[C@H](C(=O)NCCOCCO)C1)C(=O)Nc1ccc2ccccc2c1 [Compound 4, CHex(AmMet-AmβNA)(AmEtOEtOH)2]",Gel test,[2]; 1 mg/mL in H2O,clear gel
same,Gel test,[2]; 3 mg/mL in MeOH,clear gel
"O=C(O)[C@@H]1C[C@H](C(=O)O)C[C@H](C(=O)N[C@@H](Cc2ccccc2)C(=O)NCc2ccccc2)C1 [Compound 7, CHex(AmPhe-AmBn)(COOH)2]",Gel test,[2]; 3 mg/mL in H2O,slightly turbid gel
"CCCC[C@H](NC(=O)[C@@H]1C[C@H](C(=O)O)C[C@H](C(=O)N[C@@H](CCCC)C(=O)O)C1)C(=O)O [Compound 32, CHex(AmNleOH)2(COOH)]",Gel test,"[2]; H2O, concentration not given",gel
